Structures are written as SMILES.

The subject of the assay is S. cerevisiae tim23-1 mutant growth, luminescence. The assay is described as follows: potency against tim23-1 yeast growth – luminescence, uHTS hits, dose response (AID 493002).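 Also: yeast grown roughly 22 hours at 25 °C before the luminescence read.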
Take `Cc1ccc(S(=O)(=O)Oc2ccccc2C=C2C(=O)N(C)C(=O)N(C)C2=O)cc1`: the IC50 was 4.22 µM. `CCOC(=O)c1cccnc1SCc1cc(=O)n2ccccc2n1`: the IC50 was 9.96 µM. In the case of `COc1ccc(N2CCN(c3nc4cc(C)ccc4cc3C=O)CC2)cc1`, the IC50 was 24.9 µM.

In the case of `CCCOc1cccc(C(=O)N/N=C/c2coc3ccccc3c2=O)c1`, the IC50 is 13.4 µM. Consider `O=C(Nc1nccs1)c1ccc(Cl)s1`, for which the IC50 is 7.48 µM. Next, `CCN1C(=O)/C(=C2\SC(N3CCCCC3)=NC2=O)c2ccccc21`: 17.8 µM; `C/C=C/c1ccc(OCCOc2cc(C=O)ccc2OC)c(OC)c1`: 8.44 µM. Next, `O=C(Nc1ccc2oc(Cc3ccc(Cl)cc3)nc2c1)c1cccnc1`: 14.2 µM; `O=C(Oc1ccc(=O)n(-c2ccccc2)n1)c1ccc(Cl)cc1`: 11.8 µM. `O=C(N/N=C/c1cccc(F)c1)c1csc2c1CCCC2`: the IC50 was 11.4 µM.

Turning to `Cc1cc2cc(CNC(=O)c3ccc(C)c([N+](=O)[O-])c3)ccc2[nH]1`, the IC50 is 9.14 µM. Take `Cc1ccc2nc(-c3ccc(N)cc3)sc2c1`: the IC50 was 9.95 µM.

For `O=C(Nc1ccc(Br)c(Cl)c1)c1ccco1`, the IC50 was 18.4 µM.

Take `CCC(=O)OCC(=O)[C@@]1(OC(=O)CC)[C@@H](C)C[C@H]2[C@@H]3CCC4=CC(=O)C=C[C@]4(C)[C@@]3(Cl)[C@@H](O)C[C@@]21C`: the IC50 was 14.9 µM. Consider `CCOC(=O)c1c(C)oc2c1c(C(c1cccnc1)N1CCCCC1)c(O)c1ccccc12` (configuration not stated), for which the IC50 was 21.5 µM. Next, `O=C1Nc2ccccc2/C1=C/c1ccccc1Cl`: 7.21 µM; `Cc1ccc(Nc2nc3ccccc3s2)c(C)c1`: 11.1 µM; `COc1ccc(Nc2nc(N)c([N+](=O)[O-])c(NC3CCCCC3)n2)cc1`: 13.6 µM. The value for `Cc1cccc(OCCN2C(=O)C(=O)c3cc(C)ccc32)c1` was 9.52 µM; that for `NC(=O)c1c(NC(=O)c2ccccc2F)sc2c1CCCC2` was 38.3 µM. Take `N=C1/C(=C\c2coc3ccccc3c2=O)C(=O)N=C2SC=CN12`: the IC50 was 8.9 µM.

Consider `C=CCN=c1scc(-c2ccco2)n1/N=C/c1ccc(O)c(O)c1O`, for which the IC50 is 16.1 µM. As for `OCCCNc1cc(-c2ccccc2)nc2cc(-c3ccc(F)cc3)nn12`, the IC50 is 33.3 µM.

As to `O=C(N/N=C/c1cc(Br)cc(Br)c1O)c1cccc(N2CCCC2=O)c1`, the IC50 was 6.37 µM. As to `NC(=S)NNc1cc(Cl)cc(Cl)c1`, the IC50 is 10.5 µM. For the compound `O=C(NCCCc1ccccc1)Nc1cccc(Cl)c1`, the IC50 is 9.3 µM. For the compound `Cc1ccc(NC(=S)NC(=O)C2CC2)cc1Cl`, the IC50 is 6.85 µM.

For the compound `Cc1[nH][nH]c(=O)c1C(c1ccc(-c2ccc(Cl)cc2)o1)c1c(C)[nH][nH]c1=O`, the IC50 is 12.8 µM. `O=C(Nc1ccc2oc(-c3ccccc3)nc2c1)c1cccnc1`: the IC50 is 5.53 µM. Regarding `Cc1ccc(OCc2cc(C(=O)NC3CCCCC3)no2)cn1`, the IC50 is 15.4 µM. Regarding `CC1(S(=O)(=O)O)CC(=O)c2ccccc2C1=O` (configuration not stated), the IC50 was 6.57 µM. For the compound `Cc1nc2ccccc2n1/N=C/c1ccc([N+](=O)[O-])s1`, the IC50 was 1.58 µM.

Consider `CC1c2[nH]c3ccccc3c2CCN1C(=O)Nc1ccccc1` (configuration not stated), for which the IC50 was 12.1 µM.

Take `O=C(/C=C/c1ccco1)Nc1scc(-c2ccccc2)c1C(=O)O`: the IC50 is 13.6 µM. Consider `CC1CCC(NC(=O)c2cc(C3CC3)nn2-c2ccccc2)CC1` (configuration not stated), for which the IC50 is 15.8 µM. For the compound `COc1ccc(NC(=O)Nc2nc3c(s2)CCCC3)cc1`, the IC50 was 7.73 µM. Regarding `Cc1cnc(NC(=O)c2cc3c(s2)CCCC3)s1`, the 50% inhibitory concentration (IC50) was 14.5 µM. The value for `CCCCC(=O)Nc1ccc(NC(=O)c2cccs2)cn1` was 18.8 µM; that for `CCCC(=O)NC(c1ccc(C(C)C)cc1)c1ccc2cccnc2c1O` (configuration not stated) was 7.2 µM; that for `CC(C)(C)N1C(=O)c2ccc(C(=O)Nc3nccs3)cc2C1=O` was 20.3 µM. For `CCCCCCSC1=C(C#N)C(c2ccccc2)CC(=O)N1` (configuration not stated), the IC50 is 13.4 µM. Next, `Nc1cc([N+](=O)[O-])cc2oc(-c3ccccc3)cc12`: 13.1 µM.

In general, IC50 refers to the concentration needed to halve the response being measured.
